# Measured values from patent US10155021B2, “Antimicrobial 4-oxoquinolizines” (Emergent Product Development Gaithersburg Inc., priority 2011, dated 2018).
# Like-named read-outs stand apart in the source and are kept apart here.
# What was measured:
# [1] = tested on: A. baumannii A387; assay: MIC determination for Acinetobacter strains (Example 3); assay type: cell-based; details: LEV I, CIP R, IPM R, AMK R, TET R
# [2] = tested on: A. baumannii A489; assay: as above; assay type: cell-based; details: LEV R, CIP R, MRP R, IMP R, AMK R, TET R
# [3] = tested on: 11 strains of A. baumannii and one strain of Acinetobacter sp.; assay: Preliminary MBC without and with sub-inhibitory polymyxin B, whole panel (Example 4; also strains not listed separately); assay type: cell-based; details: for MBC +0.06 μg/ml PB: A. baumannii A14, +0.06 μg/ml polymyxin B; for MBC +[…] PB: A. baumannii NCTC 13301, +[…] polymyxin B; for MBC: Acinetobacter baumannii, read-out: MBC without PB
# [4] = tested on: A. baumannii J2; assay: MIC determination for Acinetobacter strains (Example 3); assay type: cell-based; details: LEV R, CIP R
# [5] = tested on: A. baumannii A387; assay: MIC without and with sub-inhibitory polymyxin B (Example 4); assay type: cell-based, Acinetobacter baumannii; details: for MIC +0.06 μg/ml PB / MIC without PB/MIC + PB: A. baumannii A387; for MIC +0.06 μg/ml PB: +0.06 μg/ml polymyxin B; for MIC without PB/MIC + PB: ratio, PB 0.06 μg/ml; for MIC: Acinetobacter baumannii, A387, A. baumannii A387, without polymyxin B, read-out: MIC without PB
# [6] = tested on: A. baumannii A387; assay: Preliminary MBC without and with sub-inhibitory polymyxin B (Example 4); assay type: cell-based, Acinetobacter baumannii; details: for MBC +0.06 μg/ml PB: A. baumannii A387, +0.06 μg/ml polymyxin B; for MBC: Acinetobacter baumannii, A387, A. baumannii A387, without polymyxin B, read-out: MBC without PB
# [7] = tested on: A. baumannii ATCC 19606; assay: as above; assay type: cell-based, Acinetobacter baumannii; details: preliminary MBC; for MBC +0.06 μg/ml PB: A. baumannii ATCC 19606, +0.06 μg/ml polymyxin B; for MBC: Acinetobacter baumannii, ATCC19606, A. baumannii ATCC 19606, without polymyxin B, read-out: MBC without PB
# [8] = tested on: A. baumannii J2; assay: MIC without and with sub-inhibitory polymyxin B (Example 4); assay type: cell-based, Acinetobacter baumannii; details: for MIC +[…] PB / MIC without PB/MIC + PB: A. baumannii J2; for MIC +[…] PB: +[…] polymyxin B; for MIC without PB/MIC + PB: ratio; for MIC: Acinetobacter baumannii, J2, A. baumannii J2, without polymyxin B
# [9] = tested on: A. baumannii A390; assay: MIC determination for Acinetobacter strains (Example 3); assay type: cell-based; details: LEV R, CIP R, MRP R, IPM I, AMK R, TET I
# [10] = tested on: A. baumannii A 401; assay: as above; assay type: cell-based; details: A401, LEV R, CIP R, AMK R, TET R
# [11] = tested on: A. baumannii ATCC 19606; assay: as above; assay type: cell-based; details: ATCC19606, reference strain
# [12] = tested on: A. baumannii A473; assay: as above; assay type: cell-based; details: LEV R, CIP R, MRP R, IMP R, AMK R, TET R
# [13] = tested on: A. baumannii A390; assay: MIC without and with sub-inhibitory polymyxin B (Example 4); assay type: cell-based, Acinetobacter baumannii; details: for MIC: Acinetobacter baumannii, A390, A. baumannii A390, without polymyxin B, read-out: MIC without PB
# [14] = tested on: S. pneumoniae 1027; assay: MIC, panel of quinolone-resistant strains (CLSI); assay type: cell-based; details: Streptococcus pneumoniae, LEV R
# [15] = tested on: S. aureus ATCC 43300 (MRSA, FQ-S); assay: MIC, selected panel of Gram-positive and Gram-negative strains (Example 5); assay type: cell-based, Staphylococcus aureus; details: Staphylococcus aureus; read-out: MIC S. aureus ATCC 43300 (MRSA, FQ-S)
# [16] = tested on: S. aureus SMITH; assay: MIC, panel of quinolone-resistant strains (CLSI); assay type: cell-based; details: Staphylococcus aureus; CIP R
# [17] = tested on: B. thailandensis E264; assay: microbe, parasite or virus in culture; assay type: cell-based, Burkholderia thailandensis; details: Burkholderia thailandensis, E264, read-out: MIC B. thailandensis E264
# [18] = tested on: S. aureus BAA-1556 (USA300-Type MRSA, FQ-R); assay: MIC, selected panel of Gram-positive and Gram-negative strains (Example 5); assay type: cell-based, Staphylococcus aureus; details: Staphylococcus aureus; read-out: MIC S. aureus BAA-1556 (USA300-Type MRSA, FQ-R)
# [19] = tested on: E. coli CTX-M-15; assay: MIC, panel of quinolone-resistant strains (CLSI); assay type: cell-based; details: Escherichia coli, CTXM15; CIP R, ESBL
# [20] = tested on: P. aeruginosa ATCC 27853; assay: MIC, selected panel of Gram-positive and Gram-negative strains (Example 5); assay type: cell-based; details: Pseudomonas aeruginosa, ATCC27853; read-out: MIC P. aeruginosa ATCC 27853
# [21] = tested on: B. thailandensis; assay: microbe, parasite or virus in culture; assay type: cell-based, Burkholderia thailandensis
# [22] = A. baumannii A14, without polymyxin B, 1st experiment
# [23] = A. baumannii A14, without polymyxin B, 2nd experiment
# [24] = NCTC13301, A. baumannii NCTC 13301, without polymyxin B, 1st experiment
# [25] = 1st experiment, read-out: MIC without PB
# [26] = 2nd experiment, visual reading, read-out: MIC without PB
smiles,measurement,setting,value
"C[C@@H](O)[C@H]1C(=O)N2C(C(=O)O)=C(SCCN=CN)C[C@H]12 [Imipenem, reference compound]",MIC,[1],16 µg/mL
same,MIC,[2],128 µg/mL
same,MBC +0.06 μg/ml PB,[3]; 1st experiment,1 µg/mL
same,MBC +0.06 μg/ml PB,[3]; 2nd experiment,0.5 µg/mL
same,MBC +[…] PB,[3]; 1st experiment,16 µg/mL
same,MBC +[…] PB,[3]; 2nd experiment,0.5 µg/mL
same,MBC,[3]; [22],2 µg/mL
same,MBC,[3]; [23],1 µg/mL
same,MBC,[3]; [24],128 µg/mL
same,MBC,"[3]; NCTC13301, A. baumannii NCTC 13301, without polymyxin B, 2nd experiment",128 µg/mL
same,MIC,[4],4 µg/mL
same,MIC +0.06 μg/ml PB,[5]; 1st experiment,8 µg/mL
same,MIC +0.06 μg/ml PB,"[5]; 2nd experiment, visual reading",8 µg/mL
same,MIC without PB/MIC + PB,[5]; 1st experiment,2
same,MIC without PB/MIC + PB,[5]; 2nd experiment,2
same,MIC,[5]; 1st experiment,16 µg/mL
same,MIC,"[5]; 2nd experiment, visual reading",16 µg/mL
same,MBC +0.06 μg/ml PB,[6]; 1st experiment,8 µg/mL
same,MBC +0.06 μg/ml PB,[6]; 2nd experiment,8 µg/mL
same,MBC,[6]; 1st experiment,16 µg/mL
same,MBC,[6]; 2nd experiment,16 µg/mL
same,MBC +0.06 μg/ml PB,[7]; 2nd experiment,1 µg/mL
same,MBC +0.06 μg/ml PB,[7]; 1st experiment,2 µg/mL
same,MBC,[7]; 2nd experiment,4 µg/mL
same,MBC,[7]; 1st experiment,2 µg/mL
same,MIC +[…] PB,[8]; 1st experiment,≤0.125 µg/mL
same,MIC +[…] PB,"[8]; 2nd experiment, visual reading",≤0.125 µg/mL
same,MIC without PB/MIC + PB,[8]; 1st experiment,≥32
same,MIC without PB/MIC + PB,[8]; 2nd experiment,≥64
same,MIC,[8]; [25],4 µg/mL
same,MIC,"[8]; 2nd experiment, MIC read with alamar blue, read-out: MIC without PB, read with alamar blue",4 µg/mL
same,MIC,[8]; [26],8 µg/mL
same,MIC,[9],16 µg/mL
same,MIC,[10],32 µg/mL
same,MIC,[11],2 µg/mL
same,MIC,[12],32 µg/mL
same,MIC +0.06 μg/ml PB,"[13]; A. baumannii A390, +0.06 μg/ml polymyxin B, 2nd experiment, visual reading",4 µg/mL
same,MIC without PB/MIC + PB,"[13]; A. baumannii A390, ratio, PB 0.06 μg/ml, 2nd experiment",4
same,MIC,[13]; 1st experiment,16 µg/mL
same,MIC,"[13]; 2nd experiment, visual reading",16 µg/mL
"C[C@H]1COc2c(N3CCN(C)CC3)c(F)cc3c(=O)c(C(=O)O)cn1c23 [Levofloxacin, reference compound]",MBC,[3]; [22],32 µg/mL
same,MBC,[3]; [23],32 µg/mL
same,MBC,[3]; [24],32 µg/mL
same,MIC,[4],32 µg/mL
same,MIC,[14],16 µg/mL
same,MIC,[15],0.25 µg/mL
same,MIC,[16],8 µg/mL
same,MBC,[7]; 2nd experiment,1 µg/mL
same,MBC,[7]; 1st experiment,0.5 µg/mL
same,MIC,[8]; [25],32 µg/mL
same,MIC,[8]; [26],32 µg/mL
same,MIC,[17],4 µg/mL
same,MIC,[18],8 µg/mL
same,MIC,[19],16 µg/mL
same,MIC,[11],1 µg/mL
same,MIC,[20],1 µg/mL
"Cc1c(-c2ccc(N)c(F)c2)ccn2c(=O)c(C(=O)O)cc(C3CC3)c12 [Compound 1, 8-(3-fluoro-4-amino-phenyl)-1-cyclopropyl-9-methyl-4-oxo-quinolizine-3-carboxylic acid]",MIC,[2],4 µg/mL
same,MIC,[4],8 µg/mL
same,MIC,"[5]; 2nd experiment, visual reading",4 µg/mL
same,MBC,[6]; 2nd experiment,4 µg/mL
same,MBC,[7]; 2nd experiment,0.25 µg/mL
same,MBC,[7]; 1st experiment,0.25 µg/mL
same,MIC,[8]; [25],8 µg/mL
same,MIC,[8]; [26],16 µg/mL
same,MIC,[9],16 µg/mL
same,MIC,[10],4 µg/mL
same,MIC90,"[21]; Burkholderia thailandensis, read-out: MIC90 B. thailandensis",< 0.048 µg/mL
same,Dilutions improvement shift on B. thailandensis MIC90 (between pH 7 and pH 5),[21]; pH 7 versus pH 5,"Yes, 4×"
same,MIC,[11],0.25 µg/mL
same,MIC,[12],4 µg/mL
same,MIC,[13]; 1st experiment,16 µg/mL
same,MIC,"[13]; 2nd experiment, visual reading",16 µg/mL
